Test results: US20060235035A1, “Novel methoxybenzamibe compounds for use in mch receptor related disorders” (7TM Pharma A/S, priority 2002, published 2006)

How the values were obtained:
human MCH-1 receptor [1] = target: T1, human MCH-1 receptor (Homo sapiens, UniProt Q99705); assay: Radioligand binding assay ([125I]-MCH competition, whole cells); settings: competition with [125I]-MCH; COS-7 or CHO cells expressing human MCH-1 receptor
T1 construct: expressed in transfected cells; host or cells: transiently transfected COS-7 cells or stably transfected CHO cells (pcDNA3.1)
Description: Transfections and Tissue Culture—The cDNA encoding the human MCH-1 receptor was cloned from a human brain cDNA library and cloned into the eukaryotic expression vector pcDNA3.1 (Invitrogen). Assays were performed on transiently transfected COS-7 cells or stably transfected CHO (Chinese Hamster Ovary) cells, expressing the human MCH-1 receptor in pcDNA3.1. Stable MCH-1 receptor transfectants of CHO cells were obtained using 5 μg plasmid cDNA and a standard calcium phosphate transfection method (Johansen et al., 1990; Gether et al., 1992) with subsequent selection in 1 mg/ml G418 (Life Technology). Clones were screened by a MCH receptor radioligand binding assay (as described below). Stably transfected CHO cells were maintained in RPMI 1640 culture medium (Invitrogen), supplemented with 10% fetal calf serum (Invitrogen), 100 U/ml penicillin, 100 μg/ml streptomycin (Life Technology), and 500 μg/ml G418 (Life Technology). COS-7 cells were grown in Dulbecco's modified Eagle's medium (DMEM) 1885 (Invitrogen) supplemented with 10% fetal calf serum, 100 U/ml penicillin, 100 μg/ml streptomycin, and were transiently transfected by a standard calcium phosphate transfection method (Johansen et al., 1990; Gether et al., 1992) two days before assay.
Radioligand Binding Assay—Transiently transfected COS-7 cells or stably transfected CHO cells, expressing human MCH-1 receptor were seeded in multi-well culture plates one day before the assay. The number of cells per well was determined by the apparent expression efficiency of the cell line aiming at 5-10% binding of the added radioligand. Cells were assayed by competition binding for 3 hours at room temperature using […] [^125I]-MCH (Amersham Pharmacia Biotech) plus variable amounts of unlabeled ligand in 0.5 ml of a 25 mM Hepes buffer, pH 7.4, supplemented with 10 mM MgCl2, 5 mM MnCl2, 10 mM NaCl, 0.1% (w/v) bovine serum albumin (BSA), 100 μg/ml bacitracin. The assay was performed in duplicate. Nonspecific binding was determined as the binding in the presence of 1 μM MCH (Bachem). Binding data were analyzed and IC50 values determined by non-linear regression using the Prism software (GraphPad software, San Diego). Values of the dissociation and inhibition constants (Kd and Ki) were estimated from competition binding using the equations Kd=IC50−L and Ki=IC50/(1+L/Kd), respectively, where L is the concentration of radioligand.

human MCH-1 receptor [2] = target: T1, human MCH-1 receptor; assay: Phosphatidylinositol assay (IP3); assay type: cell-based; settings: phosphatidylinositol turnover stimulated by 10 nM MCH; COS-7 or CHO cells expressing human MCH-1 receptor
Description: Transfections and Tissue Culture—The cDNA encoding the human MCH-1 receptor was cloned from a human brain cDNA library and cloned into the eukaryotic expression vector pcDNA3.1 (Invitrogen). Assays were performed on transiently transfected COS-7 cells or stably transfected CHO (Chinese Hamster Ovary) cells, expressing the human MCH-1 receptor in pcDNA3.1. […] Clones were screened by a MCH receptor radioligand binding assay (as described below).
Phosphatidylinositol assay—To assay phosphatidylinositol turnover, transiently transfected COS-7 cells or stably transfected CHO cells, expressing human MCH-1 receptor (2×10^5 cells/well) were incubated for 24 h with 5 μCi of [^3H]-myo-inositol (Amersham Pharmacia Biotech) in 0.5 ml inositol-free culture medium. Cells were washed twice in PI-buffer: 20 mM HEPES, pH 7.4, supplemented with 140 mM NaCl, 5 mM KCl, 1 mM MgSO4, 1 mM CaCl2, 10 mM glucose, 0.02% (w/v) bovine serum; and were incubated in 0.5 ml PI-buffer supplemented with 10 mM LiCl at 37° C. for 45 min. Phosphatidylinositol turnover was stimulated by submaximal concentrations of MCH, i.e. 10 nM in the presence of increasing amounts of ligand. The ligand was added 5 min. before adding the agonist (MCH). Cells were extracted with 10 mM ice-cold Formic acid, and the generated [^3H]-inositol phosphates were purified on Bio-Rad AG 1-X8 anion-exchange resin. Determinations were made in duplicate. PI data were analyzed and IC50 values determined by non-linear regression using the Prism software (GraphPad software, San Diego).

hMCHreceptor = target: T2, hMCHreceptor (Homo sapiens, UniProt Q99705); assay: Scintillation Proximity Assay (SPA), [125I]-MCH binding to CHO-K1 membranes; settings: CHO-K1 membranes expressing hMCH receptor
T2 construct: purchased Euroscreen ES-370-M; host or cells: CHO-K1 membranes
Description: Scintillation Proximity Assay (SPA)—Measurement of [^125I]-MCHbinding was performed in duplicates by incubating membranes and beads with tracer in the presences of various concentrations of test compounds (10^−8 to 10^−4 M) in DMSO (3 μl) at room temperature for two hours. Membranes and beads were pre-incubated for 20 min. The binding buffer contained 50 mM Tris (pH 7.4), 8 mM MgCl2, 12% glycerol, 0.1% (w/v) bovine serum albumin (BSA), and protease inhibitors (Complete protease inhibitor cocktail tablets, Roche). A final [^125I]-MCH(2000 Ci/mmol; Amersham Pharmacia Biotech) concentration of 75.000 cpm/well (33.8 nCi) was applied and PEI-treated WGA-coupled PVT SPA beads, type B from Amersham Pharmacia Biotech were used at a final concentration of 0.4 mg/well. Moreover, CHO-K1 membranes expressing the hMCHreceptor were purchased from Euroscreen (ES-370-M) and a final concentration of 2 μg/well were used. Binding data were analyzed and IC50 values determined by non-linear regression using the Prism software (GraphPad software, San Diego). Values of the inhibition constant (Ki) were estimated from competition binding using the equation Ki=IC50/([…]), where L and Kd are the concentration and affinity constant, respectively, of the radioligand.

T1 sequence (Q99705 whole entry): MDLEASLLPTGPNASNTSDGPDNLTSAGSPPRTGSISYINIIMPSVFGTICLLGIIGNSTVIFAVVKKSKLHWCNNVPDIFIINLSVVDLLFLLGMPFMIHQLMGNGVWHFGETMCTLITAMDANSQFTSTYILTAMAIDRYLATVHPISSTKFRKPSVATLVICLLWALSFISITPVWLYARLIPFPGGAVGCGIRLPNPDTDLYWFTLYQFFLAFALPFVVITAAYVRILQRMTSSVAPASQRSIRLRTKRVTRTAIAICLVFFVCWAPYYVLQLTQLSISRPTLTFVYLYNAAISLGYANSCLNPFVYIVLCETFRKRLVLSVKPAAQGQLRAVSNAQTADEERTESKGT
T2 sequence (Q99705 whole entry): as above

IC50 (human MCH-1 receptor [1]) | IC50 (human MCH-1 receptor [2]) | IC50 (hMCHreceptor) | SMILES
1480 nM | – | – | COc1cc(NC(=O)c2ccc(-c3ccccc3)cc2)ccc1C(=O)NCCN(C)C [Ex 2, Biphenyl-4-carboxylic acid[4-(2-dimethylamino-ethylcarbamoyl)-3-methoxy-phenyl]-amide]
380 nM | 2300 nM | – | COc1cc(NC(=O)Nc2ccc(Oc3ccccc3)cc2)ccc1C(=O)NCCN(C)C [Ex 8, N-(2-Dimethylamino-ethyl)-2-methoxy-4-[3-(4-phenoxy-phenyl)-ureido]-benzamide]
220 nM | 1800 nM | – | COc1cc(NC(=O)Nc2ccc(Oc3ccccc3)cc2)ccc1C(=O)NC1CCN(Cc2ccccc2)CC1 [Ex 16, N-(1-Benzyl-piperidin-4-yl)-2-methoxy-4-[3-(4-phenoxy-phenyl)-ureido]-benzamide]
210 nM | 770 nM | – | COc1cc(NC(=O)Nc2ccc(Oc3ccccc3)cc2)ccc1C(=O)NCCCN1CCOCC1 [Ex 23, 2-Methoxy-N-(3-morpholin-4-yl-propyl)-4-[3-(4-phenoxy-phenyl)-ureido]-benzamide]
48 nM | 290 nM | – | CCN(CC)CCNC(=O)c1ccc(N(C)C(=O)Nc2ccc(Oc3ccccc3)cc2)cc1OC [Ex 33, N-(2-Diethylamino-ethyl)-2-methoxy-4-[1-methyl-3-(4-phenoxy-phenyl)-ureido]-benzamide]
70 nM | 290 nM | – | CCN(CC)CCNC(=O)c1ccc(NC(=O)Nc2ccc(OC(F)(F)F)cc2)cc1 [Ex 47, N-(2-Diethylamino-ethyl)-4-[3-(4-trifluoromethoxy-phenyl)-ureido]-benzamide]
96 nM | 190 nM | – | CCN(CC)CCNC(=O)c1ccc(NC(=O)Nc2ccc(OC(F)(F)F)cc2)cc1OC [Ex 48, N-(2-Diethylamino-ethyl)-2-methoxy-4-[3-(4-trifluoromethoxy-phenyl)-ureido]-benzamide]
– | 220 nM | 27 nM | COc1cc(NC(=O)Nc2ccc(C(F)(F)F)cc2)ccc1C(=O)NCCN1CCOCC1 [Ex 67, 2-Methoxy-N-(2-morpholin-4-yl-ethyl)-4-[3-(4-trifluoromethyl-phenyl)-ureido]-benzamide]
12 nM | 22 nM | – | COc1cc(NC(=O)Nc2cccc(Nc3ccccc3)c2)ccc1C(=O)NCCCN1CCCCC1 [Ex 89, 2-Methoxy-4-[3-(3-phenylamino-phenyl)-ureido]-N-(3-piperidin-1-yl-propyl)-benzamide]
44 nM | 240 nM | – | COc1cc(NC(=O)Nc2ccc(Oc3ccccc3)cc2)ccc1C(=O)NCCCN1CCCCC1 [Ex 95, 2-Methoxy-4-[3-(4-phenoxy-phenyl)-ureido]-N-(3-piperidin-1-yl-propyl)-benzamide]
74 nM | – | – | COc1cc(NC(=O)Nc2cccc(Oc3ccccc3)c2)ccc1C(=O)NCCCN1CCOCC1 [Ex 121, 2-Methoxy-N-(3-morpholin-4-yl-propyl)-4-[3-(3-phenoxy-phenyl)-ureido]-benzamide]
69 nM | 670 nM | – | CCCCN(CCCC)CCCNC(=O)c1ccc(N(C)C(=O)Nc2ccc(Oc3ccccc3)cc2)cc1OC [Ex 134, N-(3-Dibutylamino-propyl)-2-methoxy-4-[1-methyl-3-(4-phenoxy-phenyl)-ureido]-benzamide]
450 nM | 1600 nM | – | COc1cc(NC(=O)Nc2ccc(Oc3ccc(F)cc3)cc2)ccc1C(=O)NCCCN1CCOCC1 [Ex 135, 4-{3-[4-(4-Fluoro-phenoxy)-phenyl]-ureido}-2-methoxy-N-(3-morpholin-4-yl-propyl)-benzamide]
4450 nM | – | – | COc1cc(NC(=O)Nc2ccc(Oc3ccccn3)cc2)ccc1C(=O)NCCCN1CCOCC1 [Ex 136, 2-Methoxy-N-(3-morpholin-4-yl-propyl)-4-(3-[4-(pyridin-2-yloxy)-phenyl]-ureido)-benzamide]
300 nM | – | – | COc1cc(NC(=O)Nc2ccc3c(c2)CCC3)ccc1C(=O)NC1CCN(Cc2ccccc2)CC1 [Ex 137, N-(1-Benzyl-piperidin-4-yl)-4-(3-indan-5-yl-ureido)-2-methoxy-benzamide]
1410 nM | – | – | COc1cc(NC(=O)Nc2ccc(Nc3ccc(C(F)(F)F)cc3)cc2)ccc1C(=O)NCCCN1CCOCC1 [Ex 139, 2-Methoxy-N-(3-morpholin-4-yl-propyl)-4-{3-[4-(4-trifluoromethyl-phenylamino)-phenyl]-ureido}-benzamide]
1000 nM | – | – | COc1cc(NC(=O)Nc2ccc(Oc3ccccc3)cc2)c(F)cc1C(=O)NCCCN1CCCCC1 [Ex 186, 5-Fluoro-2-methoxy-4-[3-(4-phenoxy-phenyl)-ureido]-N-(3-piperidin-1-yl-propyl)-benzamide]
